Experiment [1] has as its system Aedes aegypti. Kind of experiment: Larvicidal activity against Aedes aegypti larvae after 24 hrs […]. It is filed as functional.
Another experiment deals with Cladosporium cucumerinum. Kind of experiment: Antifungal activity against Cladosporium cucumerinum assessed as inhibition of spore growth by TLC bioassay. The class given is functional.
In experiment [2] the test system is Aedes aegypti. Put plainly: Larvicidal activity against Aedes aegypti larvae at 400 ppm after 24 hrs […]. It is filed as functional, organism-based.

Active and inactive are the calls of the source. The calls are words filed in the database; no cut-off is given here.

`C/C=C\c1cc(OC)c(OC)cc1OC` [CIS-ASARONE] displayed an LD100 in the experiment on Aedes aegypti [1] of 16 ppm. For `CC(C)(O)[C@H](O)COc1c2ccoc2cc2oc(=O)ccc12` [OXYPEUCEDANIN HYDRATE], the Activity in the experiment on Cladosporium cucumerinum is 10 µg. In addition, the result with Aedes aegypti [2] and in the experiment with Aedes aegypti [1] was inactive. Take `Clc1ccc(COC(Cn2ccnc2)c2ccc(Cl)cc2Cl)c(Cl)c1` (configuration not stated) [MICONAZOLE]: the Activity with Cladosporium cucumerinum turned out to be 1 µg.

`CC1(C)O[C@H]1COc1c2ccoc2cc2oc(=O)ccc12` [OXYPEUCEDANIN]: in the experiment on Cladosporium cucumerinum, the Activity worked out at 1 µg. In the experiment on Aedes aegypti [1], this compound returned an LD100 of 25 ppm.

The record behind these values is ChEMBL document CHEMBL1159215, “Isolation of antifungal and larvicidal constituents of Diplolophium buchanani by centrifugal partition chromatography” (1995).
